Values after ≈ are worked out from the molar mass of the structure shown.
What was measured:
Manduca sexta = assay: Growth inhibition of neonate larvae of Manduca sexta at 250 mg/l after 6 days relative to control; format: functional; conditions: 144 h, read-out: GI
Heliothis virescens = assay: Growth inhibition of neonate larvae of Heliothis virescens (tobacco budworm) at 250 mg/l after 6 days relative to control; format: functional; conditions: 144 h, read-out: GI
Spodoptera frugiperda = assay: Antifeedant activity against fourth-instar larvae of Spodoptera frugiperda (fall armyworm) fed on compound treated savanna grass for 18 hr; format: functional, organism-based
Helicoverpa zea = assay: Growth inhibition of neonate larvae of Helicoverpa zea (corn earworm)at 250 mg/l after 6 days relative to control; format: functional; conditions: 144 h, read-out: GI

Row | SMILES | inhibition of growth at 250 µg/mL (Manduca sexta) | inhibition of growth at 250 µg/mL (Heliothis virescens) | DC50 (Spodoptera frugiperda) | inhibition of growth at 250 µg/mL (Helicoverpa zea)
1 | COC(=O)C(O)[C@H]1C(C)(C)[C@@H](O)[C@@H]2C(=O)[C@]1(C)[C@H]1CC[C@]3(C)[C@@H](CC(=O)O[C@H]3c3ccoc3)[C@]13O[C@@H]23 (stereo not given in full) [3-DETIGLOYLISOSWIETEMAHONIN G] | 45.1% | 49.1% | 107 µg/mL (≈ 213 µM) | 54.6%
2 | COC(=O)[C@H](O)[C@H]1C(C)(C)[C@H](C(=O)OCC(C)C)[C@@H]2CC3=C4CC(=O)O[C@@H](c5ccoc5)[C@]4(C)CC[C@@H]3[C@@]1(C)C2=O [3-O-ISOVALERYLSWIETENOLIDE] | 23.7% | 54.5% | 0.19 µg/mL (≈ 0.333 µM) | 26.2%
3 | CCOC(=O)[C@@H](C(=O)OC)[C@H]1C(C)(C)[C@H](C(=O)OCC)[C@@H]2CC3=C4CC(=O)O[C@@H](c5ccoc5)[C@]4(C)CC[C@@H]3[C@@]1(C)C2=O [O,O-DIPROPIONYLSWIETENOLIDE] | 32.7% | 52.7% | 45.5 µg/mL (≈ 76 µM) | 20.8%
4 | COC(=O)[C@H](O)[C@H]1C(C)(C)[C@H](O)[C@]2(O)C=C3[C@@H]4CC(=O)O[C@@H](c5ccoc5)[C@]4(C)CC[C@@H]3[C@@]1(C)C2=O [3-DETIGLOYL-2-HYDROXYISOSWIETENINE] | 29.2% | 15.8% | 188 µg/mL (≈ 374 µM) | 22.4%
5 | C/C=C(\C)OC(=O)[C@H]1C(C)(C)[C@H]([C@@H](O)C(=O)OC)[C@]2(C)C(=O)[C@@]1(O)C=C1[C@@H]3CC(=O)O[C@@H](c4ccoc4)[C@]3(C)CC[C@@H]12 [2-HYDROXYSWIETENINE] | 31.7% | 62.6% | 65.8 µg/mL (≈ 113 µM) | 28.2%
6 | COC(=O)[C@H](O)[C@H]1C(C)(C)[C@H](C(=O)Oc2ccccc2)[C@@H]2C=C3[C@@H]4CC(=O)O[C@@H](c5ccoc5)[C@]4(C)CC[C@@H]3[C@@]1(C)C2=O [3-O-BENZOYL-3-DETIGLOYLISOSWIETENINE] | 8.18% | 57.8% | 254 µg/mL (≈ 430 µM) | 27.1%
7 | COC(=O)[C@H](C(=O)Oc1ccccc1)[C@H]1C(C)(C)[C@H](C(=O)Oc2ccccc2)[C@]2(O)C=C3[C@@H]4CC(=O)O[C@@H](c5ccoc5)[C@]4(C)CC[C@@H]3[C@@]1(C)C2=O [3,6-O,ODIBENZOYL-3-DETIGLOYL-2-HYDROXYISOSWIETENINE] | 6.24% | 33.8% | 233 µg/mL (≈ 328 µM) | 13.5%
8 | CC1(C)[C@H]([C@@H](O)C(=O)O)[C@]2(C)C(=O)[C@@](O)(C=C3[C@@H]4CC(=O)O[C@@H](c5ccoc5)[C@]4(C)CC[C@@H]32)[C@H]1O [DEMETHYL-3-DETIGLOYL-2-HYDROXYISOSWIETENINE] | 13.2% | 24.5% | > 10000 µg/mL | 11.1%
9 | COC(=O)[C@H](C(=O)Oc1ccccc1)[C@H]1C(C)(C)[C@H](C(=O)Oc2ccccc2)[C@@H]2CC3=C4CC(=O)O[C@@H](c5ccoc5)[C@]4(C)CC[C@@H]3[C@@]1(C)C2=O [3,6-O,O-DIBENZOYLSWIETENOLIDE] |  |  | 416 µg/mL (≈ 599 µM) | 
10 | COC(=O)COC(=O)[C@@H]1[C@@H]2CC3=C4CC(=O)O[C@@H](c5ccoc5)[C@]4(C)CC[C@@H]3[C@@](C)(C2=O)[C@@H]([C@@H](O)C(=O)OC)C1(C)C [3-O-ACETOXYACETYLSWIETENOLIDE] | 35.9% | 19% | 12.4 µg/mL (≈ 21.1 µM) | 30.2%
11 | COC(=O)[C@H](O)[C@H]1C(C)(C)[C@H](C(=O)OC(C)C)[C@@H]2CC3=C4CC(=O)O[C@@H](c5ccoc5)[C@]4(C)CC[C@@H]3[C@@]1(C)C2=O [3-O-ISOBUTYRYLSWIETENOLIDE] | 45.9% | 35.1% | 0.009 µg/mL (≈ 0.0162 µM) | 33.1%
12 | CCOC(=O)[C@@H](C(=O)OC)[C@H]1C(C)(C)[C@H](C(=O)OCC)[C@]2(O)C=C3[C@@H]4CC(=O)O[C@@H](c5ccoc5)[C@]4(C)CC[C@@H]3[C@@]1(C)C2=O [3,6-O,O-DIPROPIONYL-3-DETIGLOYL-2-HYDROXYISOSWIETENINE] | 15.8% | 17.5% | 159 µg/mL (≈ 259 µM) | 32.7%
